These results are taken from patent US11590116B2 (THERAVANCE BIOPHARMA R&D IP, LLC, priority 2019, dated 2023).

Experiment [1] relates to TGF-β-stimulated SMAD3 phosphorylation in BEAS-2B cells. The experiment in a line: Cellular ALK5 potency assay, inhibition of TGF-β stimulated pSMAD3 formation in BEAS-2B cells. It counts as cell-based. Conditions: Homo sapiens; inhibition of TGF-β stimulated pSMAD3 formation, BEAS-2B cells; read-out: BEAS2B pIC50 (converted). In short, it runs like this: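 Potency is reported as pIC50, derived from concentration-dependent reduction of pSMAD3 AlphaLISA signal against TGF-β-stimulated cells without compound. BEAS-2B cells received compound for 1 h before a 30-min stimulation with 10 ng/mL TGF-β.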

The target in experiment [2] is T1, recombinant human ALK5 (TGF-βR1) protein (Homo sapiens, UniProt P36897).
T1 construct: purchased Life Technologies PR9075A
T1 sequence (P36897 34-503): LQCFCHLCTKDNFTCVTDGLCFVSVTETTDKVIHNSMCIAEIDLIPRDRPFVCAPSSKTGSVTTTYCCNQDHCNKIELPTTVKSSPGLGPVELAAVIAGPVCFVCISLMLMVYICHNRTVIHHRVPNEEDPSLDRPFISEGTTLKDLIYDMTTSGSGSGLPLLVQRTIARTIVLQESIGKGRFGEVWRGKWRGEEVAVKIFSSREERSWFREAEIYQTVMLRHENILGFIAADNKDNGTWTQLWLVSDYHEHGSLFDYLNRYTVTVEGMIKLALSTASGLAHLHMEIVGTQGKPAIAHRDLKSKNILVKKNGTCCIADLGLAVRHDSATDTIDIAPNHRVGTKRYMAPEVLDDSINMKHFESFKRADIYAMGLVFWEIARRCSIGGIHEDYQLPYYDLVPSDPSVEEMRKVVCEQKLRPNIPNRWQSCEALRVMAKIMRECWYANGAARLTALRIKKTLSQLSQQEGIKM
Description: Biochemical ALK5 (TGF-βR1) assay to measure pKi (LANCE Ultra ULight kinase assay). Conditions: apparent pKi from pIC50 by Cheng-Prusoff, read-out: ALK5 pKi (converted). In short, it runs like this:
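Compounds (10 μM to 25 pM) were preincubated 60 min at room temperature with enzyme, then reactions were started with ATP (125 μM stock, 5× final) and run 60 min at 37 °C. EDTA-containing Eu-anti-phospho-Topo IIα (Thr1342) antibody stopped the reaction; TR-FRET read at 665 nm. pIC50 from 4-parameter fit, converted to pKi via Cheng-Prusoff.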
(TR-FRET usually uses a lanthanide donor and a delayed reading to cut background.)

For `COC(=O)[C@H]1CN(c2cnc3ccc(-c4c[nH]nc4-c4cccc(C)n4)nc3c2)CCN1` [Compound 442, methyl (2R)-4-[6-[3-(6-methyl-2-pyridyl)-1H-pyrazol-4-yl]-1,5-naphthyridin-3-yl]piperazine-2-carboxylate], the IC50 in experiment [1] was 25.1 to 158 nM. For the same molecule, in experiment [2], the Ki is 0.0398 to 0.316 nM.
For `Cc1cccc(-c2n[nH]cc2-c2ccc3ncc(N4CC5CNC5C4)cc3n2)n1` (stereo not shown) [Compound 219, 7-(3,6-diazabicyclo[3.2.0]heptan-3-yl)-2-[3-(6-methyl-2-pyridyl)-1H-pyrazol-4-yl]-1,5-naphthyridine], the IC50 in experiment [1] is 25.1 to 158 nM. Also, in experiment [2], the Ki was 0.0398 to 0.316 nM.
The matching figures for `Cc1cccc(-c2[nH]cnc2-c2ccc3ncc(-c4cccc(N5CC(N)C5)c4)cc3c2)n1` [Compound 397, 1-[3-[6-[5-(6-methyl-2-pyridyl)-1H-imidazol-4-yl]-3-quinolyl]phenyl]azetidin-3-amine]: 25.1 to 158 nM and < 0.0316 nM.
`Cc1cccc(-c2[nH]ncc2-c2ccc3nccc(C(=O)OC[C@H]4CC[C@@H](N)CC4)c3c2)n1` [Compound 1130, (4-aminocyclohexyl)methyl 6-[5-(6-methyl-2-pyridyl)-1H-pyrazol-4-yl]quinoline-4-carboxylate]: in experiment [1], the IC50 was 25.1 to 158 nM. In addition, the Ki in experiment [2] was 0.398 to 3.16 nM.
On the same counts, the results for `CNCCn1cc(-c2cnc3ccc(-c4c[nH]nc4-c4cccc(C)n4)cc3c2)cn1` [Compound 589, N-methyl-2-[4-[6-[3-(6-methyl-2-pyridyl)-1H-pyrazol-4-yl]-3-quinolyl]pyrazol-1-yl]ethanamine] are < 20 nM and < 0.0316 nM.
The matching figures for `Cc1cccc(-c2n[nH]cc2-c2ccc3nccc(NC(=O)CCN4CCOCC4)c3n2)n1` [Compound 841, N-[6-[3-(6-methyl-2-pyridyl)-1H-pyrazol-4-yl]-1,5-naphthyridin-4-yl]-3-morpholino-propanamide]: 25.1 to 158 nM and 0.398 to 3.16 nM.
For `Cc1cccc(-c2nc[nH]c2-c2ccc3ncc(-c4cnn([C@H]5CCCC[C@@H]5N)c4)cc3c2)n1` [Compound 656, (1S,2S)-2-[4-[6-[4-(6-methyl-2-pyridyl)-1H-imidazol-5-yl]-3-quinolyl]pyrazol-1-yl]cyclohexanamine], the IC50 in experiment [1] was < 20 nM. Moreover, the Ki in experiment [2] is < 0.0316 nM.
On the same counts, the results for `COc1[nH]nc(-c2cccc(C)n2)c1-c1ccc2ncc(N3CCNCC3)cc2n1` [Compound 33, 2-(5-methoxy-3-(6-methylpyridin-2-yl)-1H-pyrazol-4-yl)-7-(piperazin-1-yl)-1,5-naphthyridine] are 25.1 to 158 nM and 0.0398 to 0.316 nM.
The matching figures for `Cc1cccc(-c2[nH]cnc2-c2ccc3ncc(C(=O)O[C@H]4CC[C@@](C)(N)CC4)cc3c2)n1` [Compound 768, (4-amino-4-methyl-cyclohexyl) 6-[5-(6-methyl-2-pyridyl)-1H-imidazol-4-yl]quinoline-3-carboxylate]: 25.1 to 158 nM and 0.0398 to 0.316 nM.
As for `CNc1cnc2ccc(-c3c[nH]nc3-c3cccc(C)n3)nc2c1` [Compound 106, N-methyl-6-[3-(6-methyl-2-pyridyl)-1H-pyrazol-4-yl]-1,5-naphthyridin-3-amine], the IC50 in experiment [1] was < 20 nM. Also, the Ki in experiment [2] is 0.0398 to 0.316 nM.
In the case of `Cc1cccc(-c2n[nH]cc2-c2ccc3ncc(N4CCCN(C5CCCC5)CC4)cc3n2)n1` [Compound 400, 7-(4-cyclopentyl-1,4-diazepan-1-yl)-2-[3-(6-methyl-2-pyridyl)-1H-pyrazol-4-yl]-1,5-naphthyridine], the IC50 in experiment [1] was 200 to 1260 nM. Also, in experiment [2], the Ki was 0.0398 to 0.316 nM.
On the same counts, the results for `Cc1cccc(-c2[nH]cnc2-c2ccc3nccc(C(=O)O[C@H]4C[C@H](N)C4)c3c2)n1` [Compound 1107, (3-aminocyclobutyl) 6-[5-(6-methyl-2-pyridyl)-1H-imidazol-4-yl]quinoline-4-carboxylate] are 25.1 to 158 nM and 0.398 to 3.16 nM.
On the same counts, the results for `Cc1cccc(-c2[nH]cnc2-c2ccc3ncc(Nc4ccc(N5CCN(C)CC5)cn4)cc3c2)n1` [Compound 441, N-[5-(4-methylpiperazin-1-yl)-2-pyridyl]-6-[5-(6-methyl-2-pyridyl)-1H-imidazol-4-yl]quinolin-3-amine] are 25.1 to 158 nM and < 0.0316 nM.
The matching figures for `Cc1cccc(-c2[nH]cnc2-c2ccc3ncc(-c4csc(C(=O)OC5CNC5)n4)cc3c2)n1` [Compound 1046, azetidin-3-yl 4-[6-[5-(6-methyl-2-pyridyl)-1H-imidazol-4-yl]-3-quinolyl]thiazole-2-carboxylate]: 25.1 to 158 nM and 0.0398 to 0.316 nM.
With `Cc1cccc(-c2n[nH]cc2-c2ccc3ncc(C4=CCNCC4)cc3n2)n1` [Compound 15, 2-[3-(6-methyl-2-pyridyl)-1H-pyrazol-4-yl]-7-(1,2,3,6-tetrahydropyridin-4-yl)-1,5-naphthyridine], the IC50 in experiment [1] is < 20 nM. The Ki in experiment [2] is < 0.0316 nM.
The matching figures for `Cc1cccc(-c2nc3ccccn3c2-c2ccc3ncc(-c4cnc5n4CCNC5)cc3n2)n1` [Compound 524, 2-[2-(6-methyl-2-pyridyl)imidazo[1,2-a]pyridin-3-yl]-7-(5,6,7,8-tetrahydroimidazo[1,2-a]pyrazin-3-yl)-1,5-naphthyridine]: 25.1 to 158 nM and 0.0398 to 0.316 nM.
The matching figures for `Cc1nc(-c2nc3ccccn3c2-c2ccc3ncc(-c4cn5c(n4)CNCC5)cc3n2)ccc1F` [Compound 555, 2-[2-(5-fluoro-6-methyl-2-pyridyl)imidazo[1,2-a]pyridin-3-yl]-7-(5,6,7,8-tetrahydroimidazo[1,2-a]pyrazin-2-yl)-1,5-naphthyridine]: 25.1 to 158 nM and 0.0398 to 0.316 nM.
The matching figures for `Cc1nc(-c2n[nH]cc2-c2ccc3ncc(-c4cnn(C[C@@H]5CC[C@H](N)C5)c4)cc3n2)ccc1F` (racemic) [Compound 547, rac-(1S,3R)-3-[[4-[6-[3-(5-fluoro-6-methyl-2-pyridyl)-1H-pyrazol-4-yl]-1,5-naphthyridin-3-yl]pyrazol-1-yl]methyl]cyclopentanamine]: 200 to 1260 nM and 0.0398 to 0.316 nM.
`Cc1cccc(-c2[nH]cnc2-c2ccc3ncc(C4=C[C@H](C)N[C@H](C)C4)cc3c2)n1` [Compound 451, 3-[(2R,6S)-2,6-dimethyl-1,2,3,6-tetrahydropyridin-4-yl]-6-[5-(6-methyl-2-pyridyl)-1H-imidazol-4-yl]quinoline]: the IC50 in experiment [1] is 25.1 to 158 nM. In experiment [2], the Ki is 0.0398 to 0.316 nM.
On to `Cc1cccc(-c2n[nH]cc2-c2ccc3ncc(-c4c[nH]nc4C(F)(F)F)cc3n2)n1` [Compound 484, 2-[3-(6-methyl-2-pyridyl)-1H-pyrazol-4-yl]-7-[3-(trifluoromethyl)-1H-pyrazol-4-yl]-1,5-naphthyridine], for which the IC50 in experiment [1] is < 20 nM. For the same molecule, the Ki in experiment [2] is 0.0398 to 0.316 nM.
The matching figures for `Cc1cccc(-c2n[nH]cc2-c2ccc3nccc(-c4cn[nH]c4)c3c2)n1` [Compound 866, 6-[3-(6-methyl-2-pyridyl)-1H-pyrazol-4-yl]-4-(1H-pyrazol-4-yl)quinoline]: 25.1 to 158 nM and < 0.0316 nM.
On the same counts, the results for `CNCCN1CCn2cc(-c3cnc4ccc(-c5c[nH]nc5-c5cccc(C)n5)nc4c3)nc2C1` [Compound 262, N-methyl-2-[2-[6-[3-(6-methyl-2-pyridyl)-1H-pyrazol-4-yl]-1,5-naphthyridin-3-yl]-6,8-dihydro-5H-imidazo[1,2-a]pyrazin-7-yl]ethanamine] are 200 to 1260 nM and 0.0398 to 0.316 nM.
The matching figures for `Cc1cccc(-c2[nH]cnc2-c2ccc3ncc(-c4ccc(C(=O)OC5CCNCC5)cc4)cc3c2)n1` [Compound 310, 4-piperidyl 4-[6-[5-(6-methyl-2-pyridyl)-1H-imidazol-4-yl]-3-quinolyl]benzoate]: 25.1 to 158 nM and 0.0398 to 0.316 nM.
`Cc1cccc(-c2n[nH]cc2-c2ccc3ncc(N4CCCN(CC5CCCN5)CC4)cc3n2)n1` (stereo not shown) [Compound 274, 2-[3-(6-methyl-2-pyridyl)-1H-pyrazol-4-yl]-7-[4-(pyrrolidin-2-ylmethyl)-1,4-diazepan-1-yl]-1,5-naphthyridine]: the IC50 in experiment [1] is 200 to 1260 nM. Further, in experiment [2], the Ki is 0.0398 to 0.316 nM.
For the molecule `Cc1cccc(-c2[nH]cnc2-c2ccc3ncc(-c4cc(C(=O)OC5CNC5)ccn4)cc3c2)n1` [Compound 1074, azetidin-3-yl 2-[6-[5-(6-methyl-2-pyridyl)-1H-imidazol-4-yl]-3-quinolyl]pyridine-4-carboxylate], in experiment [1], the IC50 was 25.1 to 158 nM. In addition, the Ki in experiment [2] is 0.0398 to 0.316 nM.
Consider `Cc1cccc(-c2[nH]cnc2-c2ccc3ncc(C4=CCN(C)C4)cc3n2)n1` [Compound 309, 7-(1-methyl-2,5-dihydropyrrol-3-yl)-2-[5-(6-methyl-2-pyridyl)-1H-imidazol-4-yl]-1,5-naphthyridine], for which the IC50 in experiment [1] is 25.1 to 158 nM. Further, the Ki in experiment [2] is < 0.0316 nM.
